Here are results for 14 molecules from US8791132B2, “Compounds and methods for treatment of hypertension” (Medivation Technologies, Inc., priority 2011, dated 2014).

As a reminder, the inhibition is the change of the read-out against control, counted positive when it falls.

Molecules are shown by their SMILES. Read-outs that look alike come from different tables or passages of the source.

For assay [1], the target named is T1, human recombinant adrenergic α2B receptor (Homo sapiens, UniProt P18089).
T1 construct: expressed in transfected cells; host or cells: CHO-K1
T1 sequence (P18089 1-450): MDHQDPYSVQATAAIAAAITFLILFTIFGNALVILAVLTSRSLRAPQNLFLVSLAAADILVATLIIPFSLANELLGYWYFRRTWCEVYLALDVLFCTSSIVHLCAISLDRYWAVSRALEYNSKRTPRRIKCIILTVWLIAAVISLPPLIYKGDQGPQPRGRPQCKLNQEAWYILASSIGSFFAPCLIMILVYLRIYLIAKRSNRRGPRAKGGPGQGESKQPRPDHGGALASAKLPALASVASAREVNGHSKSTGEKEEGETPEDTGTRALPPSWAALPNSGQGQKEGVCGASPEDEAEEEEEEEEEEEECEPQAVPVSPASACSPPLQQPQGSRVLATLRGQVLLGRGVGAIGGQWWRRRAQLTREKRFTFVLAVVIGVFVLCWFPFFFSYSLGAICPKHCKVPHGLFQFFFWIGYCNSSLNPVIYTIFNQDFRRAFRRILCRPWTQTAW
Description: Radioligand binding, adrenergic α2B ([3H]Rauwolscine). Particulars: [3H]Rauwolscine. The procedure, abridged:
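Values are percent inhibition of specific radioligand binding. The receptor, expressed in CHO-K1 cells, was exposed to 2.5 nM [3H]Rauwolscine at 25° C for 60 min, with 10 μM Prazosin marking non-specific binding.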

Assay [2] deals with T2, human recombinant adrenergic α2A receptor (Homo sapiens, UniProt P08913).
T2 construct: expressed in transfected cells; host or cells: insect Sf9 cells
T2 sequence (P08913 1-465): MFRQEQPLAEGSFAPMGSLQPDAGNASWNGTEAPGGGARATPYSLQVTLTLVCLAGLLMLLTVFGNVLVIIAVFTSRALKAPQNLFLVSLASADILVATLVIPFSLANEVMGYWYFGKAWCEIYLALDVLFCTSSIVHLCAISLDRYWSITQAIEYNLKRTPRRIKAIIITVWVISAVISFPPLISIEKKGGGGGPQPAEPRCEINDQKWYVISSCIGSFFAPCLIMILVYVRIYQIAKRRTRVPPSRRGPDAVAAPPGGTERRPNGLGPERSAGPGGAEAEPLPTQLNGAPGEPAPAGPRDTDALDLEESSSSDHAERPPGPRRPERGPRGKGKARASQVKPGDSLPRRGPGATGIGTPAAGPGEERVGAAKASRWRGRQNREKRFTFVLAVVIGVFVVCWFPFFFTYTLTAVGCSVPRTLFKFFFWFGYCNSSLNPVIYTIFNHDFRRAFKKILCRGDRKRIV
Nature of the assay: Radioligand binding, adrenergic α2A ([3H]MK-912). As to conditions: [3H]MK-912. The procedure, abridged:
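Sf9-expressed receptor was incubated with compound for 60 min at 25 °C in modified Tris-HCl buffer, pH 7.4. Nonspecific binding was taken as that remaining with 10 μM WB-4101.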

Assay [3] has as its target T3, rat adrenergic α1B receptor (Rattus norvegicus, UniProt P15823).
T3 construct: rat adrenergic α1B receptor obtained from Wistar Rat liver; from tissue; host or cells: Wistar rat liver
T3 sequence (P15823 1-515): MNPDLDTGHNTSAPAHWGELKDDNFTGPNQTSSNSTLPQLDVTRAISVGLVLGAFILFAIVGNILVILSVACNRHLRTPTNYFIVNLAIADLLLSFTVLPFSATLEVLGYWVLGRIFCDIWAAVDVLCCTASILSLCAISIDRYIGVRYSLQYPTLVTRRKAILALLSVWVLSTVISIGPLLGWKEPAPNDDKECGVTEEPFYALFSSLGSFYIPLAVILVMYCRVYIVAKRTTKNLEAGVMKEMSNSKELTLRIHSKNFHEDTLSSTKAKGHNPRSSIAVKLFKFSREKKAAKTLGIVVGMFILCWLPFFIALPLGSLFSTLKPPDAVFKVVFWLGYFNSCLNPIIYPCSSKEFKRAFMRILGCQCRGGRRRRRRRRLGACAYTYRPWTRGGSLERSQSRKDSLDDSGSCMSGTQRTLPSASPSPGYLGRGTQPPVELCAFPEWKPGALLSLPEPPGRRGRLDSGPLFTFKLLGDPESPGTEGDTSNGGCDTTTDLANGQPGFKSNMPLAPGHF
Description: Radioligand binding, adrenergic α1B ([3H]Prazosin). As to conditions: [3H]Prazosin; for Percentage inhibition of ligand binding, Adrenergic α1B (0.1 μM) / Percentage inhibition of ligand binding, Adrenergic α1B: 0.1 µM. Summed up: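 Filter binding with Wistar rat liver α1B preparation: test compound plus 0.25 nM [3H]prazosin, 1 h at 25° C in modified Tris-HCl buffer pH 7.4.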

The mark [4] stands for this setting: read-out: Percentage inhibition of ligand binding, Adrenergic α2B (0.03 μM), compound at 0.03 μM, repeat datapoints each shown.
Setting [5] is: read-out: Percentage inhibition of ligand binding, Adrenergic α2A (0.1 μM), compound at 0.1 μM, repeat datapoints each shown.
Where [6] appears, read: compound at 0.1 μM, repeat datapoints each shown.
Setting [7] is: compound at 0.03 μM, repeat assays, each datapoint shown, 0.03 µM.
The mark [8] stands for this setting: compound at 0.1 μM, repeat assays, each datapoint shown, 0.1 µM.
[9] abbreviates: compound at 0.1 μM, repeat assays, each datapoint shown.
Where [10] appears, read: compound at 0.03 μM, repeat assays, each datapoint shown, read-out: Percentage inhibition of ligand binding, Adrenergic α2B.
Where [11] appears, read: compound at 0.1 μM, repeat assays, each datapoint shown, read-out: Percentage inhibition of ligand binding, Adrenergic α2A.
Where [12] appears, read: compound at 0.1 μM, repeat assays, each datapoint shown, read-out: Percentage inhibition of ligand binding, Adrenergic α1B.
Setting [13] is: read-out: Percentage inhibition of ligand binding, Adrenergic α1B (0.1 μM), compound at 0.1 μM, repeat datapoints each shown.

As for `Cc1ccc2c(c1)c1c(n2CC(N=[N+]=[N-])c2ccc(F)cc2F)CCN(C)CC1` (single isomer, unassigned) [V-21a, 6-(2-azido-2-(2,4-difluorophenyl)ethyl)-3,9-dimethyl-1,2,3,4,5,6-hexahydroazepino[4,5-b]indole], in assay [1] (setting [4]), the inhibition at 0.03 µM is 98%. In addition, the inhibition at 0.1 µM in assay [2] (setting [5]) was 62%. Further, the “Percentage inhibition of ligand binding, Adrenergic α1B (0.1 μM)” value in assay [3] (setting [6]) worked out at 68%.

For the molecule `Cc1ccc2c(c1)c1c(n2CC(N=[N+]=[N-])c2ccc(F)cc2F)CCN(C)CC1` (single isomer, unassigned) [V-21b, 6-(2-azido-2-(2,4-difluorophenyl)ethyl)-3,9-dimethyl-1,2,3,4,5,6-hexahydroazepino[4,5-b]indole], in assay [1] (compound at 0.03 μM, repeat datapoints each shown, 0.03 µM), the “Percentage inhibition of ligand binding, Adrenergic α2B (0.03 μM)” value is listed as 93%. For the same molecule, the “Percentage inhibition of ligand binding, Adrenergic α2A (0.1 μM)” value in assay [2] (compound at 0.1 μM, repeat datapoints each shown, 0.1 µM) was 43%. For the same molecule, the “Percentage inhibition of ligand binding, Adrenergic α1B (0.1 μM)” value in assay [3] (setting [6]) stood at 34%.

Take `Cc1ccc2c(c1)c1c(n2CC(O)c2ccncc2)CN(C)CC1` (stereo not drawn) [8a]: the “Percentage inhibition of ligand binding, Adrenergic α2B” value in assay [1] (setting [7]) was 22%. The “Percentage inhibition of ligand binding, Adrenergic α2A” value in assay [2] (setting [8]) was 15%. For the same molecule, the “Percentage inhibition of ligand binding, Adrenergic α1B” value in assay [3] (setting [9]) amounted to 39%.

In the case of `Cc1ccc2c(c1)c1c(n2CC(C)(O)c2cccnc2)CN(C)CC1` (stereo not drawn) [14b, 1-(2,6-dimethyl-1,2,3,4-tetrahydro-β-carbolin-9-yl)-2-pyridin-3-yl-propan-2-ol], in assay [1] (setting [10]), the inhibition at 0.03 µM was determined as 14%. Moreover, the results for the inhibition at 0.1 µM in assay [2] (setting [11]) and in assay [3] (setting [12]) were -6% and 25%, respectively.

As for `Cc1ccc2c(c1)c1c(n2CC(C)(O)c2ccc(C)nc2)CCN(C)C1` (stereo not drawn) [29b], the inhibition at 0.03 µM in assay [1] (setting [10]) stood at 46%. The “Percentage inhibition of ligand binding, Adrenergic α2A” value in assay [2] (setting [9]) was determined as 10%. For the same molecule, in assay [3] (setting [9]), the “Percentage inhibition of ligand binding, Adrenergic α1B” value amounted to 14%.

Consider `CN1CCc2c(c3cc(Cl)ccc3n2CC(C)(O)c2cccnc2)C1` (stereo not drawn) [31b], for which the inhibition at 0.03 µM in assay [1] (setting [10]) turned out to be 36%. Besides, the inhibition at 0.1 µM in assay [2] (setting [11]) is 14%; in assay [3] (setting [12]), 3%.

`CCC(O)(Cn1c2c(c3cc(C)ccc31)CN(C)CC2)c1ccncc1` (stereo not drawn) [35a]: the inhibition at 0.1 µM in assay [1] (compound at 0.1 μM, repeat assays, each datapoint shown, read-out: Percentage inhibition of ligand binding, Adrenergic α2B) amounted to 62%; in assay [2] (setting [11]) it was 20%; in assay [3] (setting [12]) it was 9%.

For `Cc1ccc2c(c1)c1c(n2CC(O)c2cc[n+]([O-])cc2)CCN(C)C1` (stereo not drawn) [69a], the inhibition at 0.03 µM in assay [1] (setting [10]) is 10%. The inhibition at 0.1 µM in assay [2] (setting [11]) amounted to 11%; in assay [3] (setting [12]), 4%.

For the molecule `Cc1ccc2c(c1)c1c(n2CC(O)c2cc[n+]([O-])cc2)CCN(C)C1` (stereo not drawn) [69b], the “Percentage inhibition of ligand binding, Adrenergic α2B” value in assay [1] (setting [7]) is reported as 19%. In addition, the “Percentage inhibition of ligand binding, Adrenergic α2A” value in assay [2] (setting [8]) turned out to be 7%. For the same molecule, in assay [3] (setting [9]), the “Percentage inhibition of ligand binding, Adrenergic α1B” value is recorded as 8%.

With `Cc1ccc2c(c1)c1c(n2C(C)C(O)c2ccncc2)CCN(C)C1` (stereo not drawn) [127b], in assay [1] (setting [4]), the inhibition at 0.03 µM worked out at 1%. Moreover, the inhibition at 0.1 µM in assay [2] (setting [5]) was 4%; in assay [3] (setting [13]) it was 13%.

For the molecule `Cc1ccc2c(c1)c1c(n2CC(C)(O)c2cccnc2)CNCC1` (stereo not drawn) [128b], in assay [1] (setting [4]), the inhibition at 0.03 µM stood at 54%. Moreover, the inhibition at 0.1 µM in assay [2] (setting [5]) was 22%; in assay [3] (setting [13]) it was 45%.

Regarding `Cc1ccc2c(c1)c1c(n2CC(O)c2cnn(C)c2)CCN(C)C1` (stereo not drawn) [131a, 2-(1,2,3,4-tetrahydro-2,8-dimethylpyrido[4,3-b]indol-5-yl)-1-(1-methyl-1H-pyrazol-4-yl)ethanol], the inhibition at 0.03 µM in assay [1] (setting [4]) worked out at 30%. The inhibition at 0.1 µM in assay [2] (setting [5]) was found to be 10%; in assay [3] (setting [13]), 24%.

Take `Cc1ccc2c(c1)c1c(n2CC(O)c2ccncc2C)CCN(C)C1` (stereo not drawn) [133a]: the inhibition at 0.03 µM in assay [1] (setting [4]) turned out to be 52%. Besides, the inhibition at 0.1 µM was determined as 13% in assay [2] (setting [5]) and 57% in assay [3] (setting [13]).

In the case of `Cc1cnc2c(c1)c1c(n2CCc2cccnc2)CCN2CCCC12` (stereo not drawn) [134a, 9-methyl-6-(2-pyridin-3-yl-ethyl)-2,3,4,5,6,10c-hexahydro-1H-3a,6,7-triaza-cyclopenta[c]fluorene], in assay [1] (setting [4]), the inhibition at 0.03 µM stood at 42%. In addition, the inhibition at 0.1 µM was 4% in assay [2] (setting [5]) and 27% in assay [3] (setting [13]).
